# Literature values as cited in US20100310652A1, “COATED EXTENDED RELEASE PHARMACEUTICAL COMPOSITIONS OF LEVETIRACETAM” (Alembic Limited, priority 2007, published 2010).
# Tests used:
# [1] = highly permeable
# [2] = in 15 minutes, three different pH media
structure (smiles),measurement,setting,value
"CC[C@@H](C(N)=O)N1CCCC1=O [Levetiracetam, (−)-(S)-α-ethyl-2-oxo-1-pyrrolidine acetamide]",permeability (F),[1],> 90%
same,aqueous solubility,,1040 mg/mL
same,drug released,[2],more than 85%
